From US9540361B2, “N-substituted azetidine derivatives” (Merck Sharp & Dohme B.V., priority 2010, dated 2017) come the findings set out here.

For one data set, the target named is T1, estrogen receptor alpha (Homo sapiens, UniProt P03372).
T1 construct: endogenous in cells; host or cells: T47D human breast cancer cells (ATCC)
T1 sequence (P03372 1-595): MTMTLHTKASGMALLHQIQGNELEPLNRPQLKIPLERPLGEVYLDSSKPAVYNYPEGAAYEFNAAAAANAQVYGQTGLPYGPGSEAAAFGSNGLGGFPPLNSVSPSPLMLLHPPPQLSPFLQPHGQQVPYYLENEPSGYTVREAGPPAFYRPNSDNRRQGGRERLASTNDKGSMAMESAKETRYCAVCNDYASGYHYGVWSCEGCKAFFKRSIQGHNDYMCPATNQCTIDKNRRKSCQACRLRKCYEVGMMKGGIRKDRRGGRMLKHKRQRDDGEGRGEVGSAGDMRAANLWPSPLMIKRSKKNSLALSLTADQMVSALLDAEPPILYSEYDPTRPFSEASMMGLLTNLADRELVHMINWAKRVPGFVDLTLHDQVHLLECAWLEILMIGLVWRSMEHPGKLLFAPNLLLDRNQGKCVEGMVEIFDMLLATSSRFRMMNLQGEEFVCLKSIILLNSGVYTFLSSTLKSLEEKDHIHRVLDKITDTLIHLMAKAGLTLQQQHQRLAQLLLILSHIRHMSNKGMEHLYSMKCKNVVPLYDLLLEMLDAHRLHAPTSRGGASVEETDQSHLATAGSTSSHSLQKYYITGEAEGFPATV
Description: ERα downregulation assay in T47D breast cancer cells (ERα ELISA). The class given is cell-based. The note with it: downregulation of ERα relative to fulvestrant (100%), 1E-5 M, 24 hours, negative = upregulation. Put shortly: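 T47D cells were treated with 1E-5 M test compound for 24 hours, then lysed in the well. ERα protein content was measured by ELISA. Efficacy is given as fraction of maximal response relative to fulvestrant, defined as 100% downregulation.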

Another data set has as its system MCF-7H cells. Description: 7-day in vitro proliferation assay in tamoxifen-resistant MCF-7H breast cancer cells (methyl-3H-thymidine incorporation). The class given is cell-based, human. Conditions: Homo sapiens, MCF7, 168 h; efficacy (fraction of maximal response relative to E2) in MCF-7H proliferation; read-out: MCF7 ia. The procedure: To what extent compounds are capable of stimulating proliferation in ER-positive, tamoxifen-resistant breast cancer cells is tested in a 7-day in vitro proliferation assay using MCF-7H cells. More specifically, this in vitro bioassay is used to determine the efficacy (fraction of maximal response), pEC50, and relative potency of the compound to induce proliferation by comparing the data for this compound with those of the reference compound 17β-estradiol (E2) in the same test.
A more detailed description of the method used is as follows.
Cell culture: The human epithelial breast cancer cell line MCF-7H (origin: Hubrecht Laboratory, Utrecht, The Netherlands) was routinely maintained in complete medium which is a 1:1 mixture of Ham's F12 medium and Dulbecco's Modified Eagle Medium (DMEM; Invitrogen, Carlsbad, USA) without phenol red and enriched with 5% fetal calf serum (FCS; Hyclone, Utah, USA), 100 μg/ml streptomycin and 100 units/ml penicillin adapted to contain:
Cells were grown in 80 cm^2 culture flasks (Nunc, Roskilde, Denmark) and kept in an atmosphere of 5% CO2-95% air at 37 degrees Celsius. Cells were subcultured when they reached about 80-90% confluence, resulting in one passage a week. Subculturing includes detaching the cells using trypsin/EDTA and diluting the cell suspension 10 times.
Methyl-^3H-thymidine incorporation assay: MCF-7H cells were starved overnight in assay medium containing 5% charcoal-treated (CT) bovine calf serum (BCS; Hyclone) instead of FCS and a final concentration of 1.0 μg/ml bovine insulin, the day before plating. Cells were plated in assay medium containing 5% CT BCS, in white 24-wells plates (Perkin Elmer, Shelton, USA), at a density of 7.5×10^3 cells per well, each well containing 630 μL assay medium. Cells were allowed to attach and spread for 24 h before stimulation with reference and/or test compound(s). After a stimulation period of 7 days, 0.25 μCi/well of methyl-^3H-thymidine (GE Healthcare Limited, Buckinghamshire, UK) was added per well. Cultures were maintained in an atmosphere of 5% CO2-95% air at 37 degrees Celsius. After overnight incubation, excess methyl-^3H-thymidine was aspirated and the cells were washed with phosphate-buffered saline (PBS). After 1 h of incubation with 1 ml scintillation fluid Microscint-20 (Perkin Elmer), radioactivity was measured in a Packard TOP-count NXT microplate scintillation counter (Perkin Elmer).
(Dividing cells build labelled thymidine or BrdU into new DNA.)

Data set [1] can be described thus: Rapid Rat PK after oral administration. The data set is classed as in vivo, rats (Rattus Norvegicus). The note with it: 20 umol/kg, plasma, oral 20 μmol/kg; for AUC: AUC(0-6h), read-out: RRat AUC; for Cmax: read-out: RRat Cmax. As to the method:
In the context of the present invention with “orally bioavailable” is meant that compounds, when dosed orally to a rat show oral exposure as determined by quantification of compound plasma levels in that rat. Typically, compounds are dosed orally at 20 μmol/kg, as described in Example 14 hereinbelow. Oral exposure is determined by measuring plasma levels over the time range of 0-6 h after dosing and is expressed by AUC(0-6h).
This test was used to determine the pharmacokinetic parameters (AUC(0-6h), Cmax and Tmax) after oral administration of compounds in male (intact or castrated) or female (intact or ovariectomized) rats (Rattus Norvegicus).
After oral administration of a compound at 20 μmol/kg, blood was collected at various time points (0.5, 1, 2, 3, 4 and 6 hours after compound administration) via the tail vein. Plasma samples were pooled per time point, after which the concentration was determined in plasma by means of LC-MS. Pharmacokinetic parameters (AUC(0-6h), Cmax and Tmax) were derived from the obtained concentration versus time curves using the non-compartmental analysis module in Animals! or WinNonlin.

Data set [2] concerns the target T2, human estrogen receptor α (hERα) (Homo sapiens, UniProt P03372).
T2 sequence (P03372 1-595): T1 sequence (P03372 1-595)
The data set can be described thus: antagonistic activity in CHO cells co-transfected with hERα, rat oxytocin promoter and luciferase reporter gene. The class given is cell-based. Conditions: antagonism of 17β-estradiol-induced transactivation, CHO-hERα-RO-LUC; read-out: ERα pIC50 (converted). Put shortly: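 Efficacy is the fraction of maximal inhibition of 17β-estradiol-activated receptor, normalised to ICI 164,384 maximal inhibition. Read-out is luciferase in CHO cells stably co-transfected with human ERα and an oxytocin-promoter-driven reporter.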
On the technique in general: In a reporter assay the amount or activity of a reporter protein is the signal.

Broadly, the AUC is concentration integrated over time. By Cmax is commonly meant the highest concentration seen after dosing. With `CCCN1CC(Oc2ccc(-c3c(-c4ccccc4Cl)noc3-c3ccc(O)cc3)cc2)C1` [compound 6g, 4-(4-(4-(N-propylazetidin-3-yloxy)phenyl)-3-(2-chlorophenyl)isoxazol-5-yl)-phenol], the “DR (%)” value at estrogen receptor alpha turned out to be 57%. Besides, the Emax with MCF-7H cells was found to be 2%. In data set [1], the AUC was found to be 2.05 µM·h and the maximum concentration (Cmax) amounted to 570 nM. Also, the IC50 in data set [2] was 0.251 nM.
For `CCCN1CC(Oc2ccc(C(=C(CC)c3ccccc3)c3ccccc3)cc2)C1.O=C(O)C(F)(F)F` [compound 6u, 3-(4-(1,2-diphenylbut-1-enyl)phenoxy)-1-propylazetidine 2,2,2-trifluoroacetate], at estrogen receptor alpha, the “DR (%)” value is listed as 75%. In the data set with MCF-7H cells, the Emax was 8%. In addition, in data set [1], the AUC stood at 1.97 µM·h and the Cmax is 450 nM. In addition, the IC50 in data set [2] was 31.6 nM.
`Cl.Oc1ccc(-c2onc(-c3ccccc3Cl)c2-c2ccc(OC3CN(CC4CC4)C3)cc2)cc1` [compound 7y, 4-(3-(2-chlorophenyl)-4-(4-(1-(cyclopropylmethyl)azetidin-3-yloxy)phenyl)-isoxazol-5-yl)phenol hydrochloride]: at estrogen receptor alpha, the “DR (%)” value turned out to be 57%. Further, in data set [1], the AUC is 1.2 µM·h and the Cmax amounted to 290 nM. For the same molecule, in data set [2], the IC50 was 0.316 nM.
Taken in the same sequence, the figures for `Cl.Oc1ccc(-c2onc(-c3ccccc3Cl)c2-c2ccc(OC3CN(CC4CCC4)C3)cc2)cc1` [compound 7z, 4-(3-(2-chlorophenyl)-4-(4-(1-(cyclobutylmethyl)azetidin-3-yloxy)phenyl)-isoxazol-5-yl)phenol hydrochloride] were 58%, 1.03 µM·h, 350 nM and 0.398 nM.
